Test results from PubChem BioAssay (NCI).
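Where inhibition never reached the appropriate level, the endpoint shown equals the highest concentration tested. Otherwise, values were interpolated linearly from a five-concentration, 48-hour dose response in 96-well plates. TGI: total growth inhibition.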

What was measured:
Test in all cases: NCI tumour cell line growth inhibition, 48 h
[1] = system: T-47D breast
[2] = system: MCF7 breast
[3] = system: HOP-92 NSCLC
[4] = system: SK-MEL-28 melanoma
[5] = system: BT-549 breast
[6] = system: NCI-H522 lung
[7] = system: UO-31 renal
[8] = system: NCI/ADR-RES ovarian
[9] = system: MDA-N
[10] = system: K-562 leukemia
[11] = system: UACC-257 melanoma
[12] = system: MDA-MB-231 breast
[13] = system: MALME-3M melanoma
[14] = system: A549 NSCLC
[15] = system: LOX IMVI melanoma
[16] = system: SW-620 colon
[17] = system: NCI-H23 lung
[18] = system: SNB-19 CNS
[19] = system: DU-145 prostate
[20] = system: A498 renal
[21] = system: NCI-H226 lung
[22] = system: MOLT-4 leukemia
[23] = system: KM12 colon
[24] = system: SK-MEL-2 melanoma
[25] = system: CAKI-1 renal
[26] = system: MDA-MB-435
[27] = system: HL-60(TB) leukemia
[28] = system: SK-OV-3 ovarian
[29] = system: SF-539 CNS
[30] = system: HCC-2998 colon
[31] = system: HCT-116 colon
[32] = system: RXF 393 renal
[33] = system: SNB-75 CNS
[34] = system: SN12C renal
[35] = system: TK-10 renal
[36] = system: SF-295 CNS
[37] = system: SK-MEL-5 melanoma
[38] = system: RPMI-8226 leukemia
[39] = system: NCI-H460 lung
[40] = system: HCT-15 colon
[41] = system: OVCAR-4 ovarian
[42] = system: HT29 colon
[43] = system: OVCAR-3 ovarian
[44] = system: IGROV1 ovarian
[45] = system: HOP-62 NSCLC
[46] = system: OVCAR-8 ovarian
[47] = system: U251 CNS
[48] = system: CCRF-CEM leukemia
[49] = system: 786-0 renal
[50] = system: UACC-62 melanoma
[51] = system: EKVX NSCLC
[52] = system: SR leukemia
[53] = system: ACHN renal
[54] = system: OVCAR-5 ovarian
[55] = system: M14 melanoma
[56] = system: PC-3 prostate
[57] = system: HS 578T breast
[58] = system: COLO 205 colon
[59] = system: SF-268 CNS
[60] = system: DLD-1 colon
[61] = system: KM20L2 colon
[62] = system: DMS 114 small cell lung
[63] = system: LXFL 529 NSCLC
[64] = system: M19-MEL melanoma
[65] = system: SNB-78 CNS

Measured: TGI

COc1cc2c(c(OC)c1OC)C(=O)[C@H](Br)[C@H]2NC(=O)NCCCl
not listed: [60] | [61] | [62] | [63] | [64] | [65]
> 100 µM: all other assays above

NC(Cc1ccnnc1)C(=O)O (stereo unspecified)
not listed: [60] | [61] | [62] | [63] | [64] | [65]
> 100 µM: all other assays above

COC(=O)/C(=C/c1ccc(OC)cc1)NC(=O)c1ccccc1
not listed: [1] | [2] | [5] | [6] | [8] | [9] | [12] | [19] | [26] | [43] | [45] | [56] | [57] | [58] | [64] | [65]
> 100 µM: all other assays above

COc1ccc2c(c1)CC[C@@H]1C2CC[C@]2(C)C(=O)N(N)C(=O)CC12 (stereo partly specified)
not listed: [1] | [2] | [5] | [8] | [9] | [12] | [14] | [15] | [16] | [19] | [21] | [25] | [26] | [27] | [29] | [30] | [32] | [34] | [35] | [37] | [40] | [46] | [51] | [56] | [57] | [60]
> 100 µM: all other assays above
